In patent US7671055B2, “Insecticidal 3-(dihaloalkenyl) phenyl derivatives” (FMC Corporation, priority 2004, dated 2010):

System: tobacco budworm (Heliothis virescens [Fabricius])
Assay: surface-treated diet test against tobacco budworm
Format: in vivo
Settings: 0.25 millimolar on surface of diet; second instar larvae; five-day exposure; inhibition of insect weight relative to untreated controls
Method: Candidate insecticides were evaluated for activity against the tobacco budworm (Heliothis virescens [Fabricius]) in a surface-treated diet test.
In this test one mL of molten (65-70° C.) wheat germ-based artificial diet was pipetted into each well of a four by six (24 well) multi-well plate (ID#430345-15—[…].×17.6 mm deep; Corning Costar Corp., One Alewife Center, Cambridge, Mass. 02140). The diet was allowed to cool to ambient temperature before treatment with candidate insecticide.
For a determination of insecticidal activity, solutions of the candidate insecticides were prepared for testing using a Packard 204DT Multiprobe® Robotic System (Packard Instrument Company, 800 Research Parkway, Meriden, Conn. 06450), in which the robot first diluted a standard 50 millimolar DMSO solution of candidate insecticide with a 1:1 water/acetone solution (V/V) in a ratio of 1:7 stock solution to water/acetone. The robot subsequently pipetted 40 microliters of the so-prepared solution onto the surface of the diet in each of three wells in the 24 multi-well plate. The process was repeated with solutions of seven other candidate insecticides. […]
After the five-day exposure period insecticidal activity for each rate of application of candidate insecticide was assessed as percent inhibition of insect weight relative to the weight of insects from untreated controls. […]

| Compound | Percent Growth Inhibition [%] |
| --- | --- |
| CC1(C)Cc2cccc(OCCCCOc3cc(OCC=C(Cl)Cl)cc(Cl)c3Cl)c2O1 [Compound 2, 7-{4-[5-(3,3-dichloroprop-2-enyloxy)-2,3-dichlorophenoxy]butoxy}-2,2-dimethyl-2,3-dihydro-benzo[b]furan] | 100 |
| FC(F)(F)c1ccc(N2CCN(c3cc(OCC=C(Cl)Cl)cc(Cl)c3Br)CC2)nc1 [Compound 19, 5-(3,3-dichloroprop-2-enyloxy)-2-bromo-3-chloro-1-{4-[5-(trifluoromethyl)(2-pyridyl)]piperazinyl}-benzene] | 100 |
